Consider 21 compounds from ChEMBL document CHEMBL5346977, “Discovery of Novel d-(+)-Biotin-Conjugated Resorcinol Dibenzyl Ether-Based PD-L1 Inhibitors for Targeted Cancer Immunotherapy” (J Med Chem, 2023).

Activity calls are given as the source filed them.

Series [1] deals with T1, Programmed cell death protein 1/Programmed cell death 1 ligand 1 (Homo sapiens) (UniProt Q15116+Q9NZQ7). Kind of series: Inhibition of GST-tagged PD-1 (unknown origin)/His-tagged PD-L1 (unknown origin) interaction at 100 nM by HTRF binding assay relative to control. In kind it is protein-complex assay. A general note: TR-FRET usually uses a lanthanide donor and a delayed reading to cut background.

Series [2] has as its target T1, Programmed cell death protein 1/Programmed cell death 1 ligand 1 (Homo sapiens). Kind of series: Inhibition of GST-tagged PD-1 (unknown origin)/His-tagged PD-L1 (unknown origin) interaction at 10 nM by HTRF binding assay relative to control. In kind it is protein-complex assay.
The target of series [3] is T2, Programmed cell death protein 1/Programmed cell death 1 ligand 1 (Homo sapiens, UniProt Q9NZQ7). Kind of series: Inhibition of GST-tagged PD-1 (unknown origin)/His-tagged PD-L1 (unknown origin) interaction by HTRF binding assay relative to control. In kind it is protein-complex assay.
T2 sequence (Q15116 whole entry): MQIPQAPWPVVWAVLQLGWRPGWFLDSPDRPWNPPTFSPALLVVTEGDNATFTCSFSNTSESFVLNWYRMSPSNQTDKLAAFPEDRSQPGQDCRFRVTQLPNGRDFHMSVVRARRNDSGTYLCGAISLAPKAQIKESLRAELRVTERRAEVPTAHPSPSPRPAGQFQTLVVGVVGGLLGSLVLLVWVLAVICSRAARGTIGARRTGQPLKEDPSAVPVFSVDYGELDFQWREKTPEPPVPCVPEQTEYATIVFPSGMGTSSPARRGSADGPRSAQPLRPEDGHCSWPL
T2 sequence (Q9NZQ7 whole entry): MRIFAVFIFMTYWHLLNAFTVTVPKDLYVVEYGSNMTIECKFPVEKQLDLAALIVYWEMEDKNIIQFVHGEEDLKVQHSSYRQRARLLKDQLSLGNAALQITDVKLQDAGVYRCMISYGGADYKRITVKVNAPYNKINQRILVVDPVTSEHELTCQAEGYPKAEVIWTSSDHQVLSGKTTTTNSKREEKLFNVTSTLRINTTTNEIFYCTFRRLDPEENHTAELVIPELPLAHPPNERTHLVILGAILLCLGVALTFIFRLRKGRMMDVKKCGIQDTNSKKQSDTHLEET
Series [4] can be described thus: Tmax in Sprague-Dawley rat at 1 mg/kg, iv administered as single dose and measured after 48 hrs by HPLC-MS/MS analysis. It is filed as ADME, organism-based. The note with it: in vivo.
A short description of series [5]: Initial drug concentration in Sprague-Dawley rat at 1 mg/kg, iv administered as single dose and measured after 48 hrs by HPLC-MS/MS analysis. In kind it is ADME, organism-based. The note with it: in vivo.
The nature of series [6]: Toxicity in allogenic BALB/c mouse implanted with mouse B16-F10 cells assessed as inflammatory cell infiltration in colon at 50 mg/kg, ip by H&E staining based analysis. It is filed as organism-based. The note with it: in vivo.
Series [7] can be described thus: MRT (0 to t) in Sprague-Dawley rat at 1 mg/kg, iv administered as single dose and measured after 48 hrs by HPLC-MS/MS analysis. In kind it is ADME, organism-based. Conditions: in vivo.
A short description of series [8]: Clearance in Sprague-Dawley rat at 1 mg/kg, iv administered as single dose and measured after 48 hrs by HPLC-MS/MS analysis. It is filed as ADME, organism-based. The note with it: in vivo.
The nature of series [9]: Apparent volume of distribution in Sprague-Dawley rat at 1 mg/kg, iv administered as single dose and measured after 48 hrs by HPLC-MS/MS analysis. It is filed as ADME, organism-based. The note with it: in vivo, read-out: Vz.
Series [10] is described as follows: MRT (0 to infinity) in Sprague-Dawley rat at 1 mg/kg, iv administered as single dose and measured after 48 hrs by HPLC-MS/MS analysis. In kind it is ADME, organism-based. The note with it: in vivo.
Series [11] in a line: AUC (0 to t) in Sprague-Dawley rat at 1 mg/kg, iv administered as single dose and measured after 48 hrs by HPLC-MS/MS analysis. In kind it is ADME, organism-based. Also noted: dose 1 mg/kg, time 48 hrs, route iv. The note with it: in vivo.
Series [12] addresses T2, Programmed cell death protein 1/Programmed cell death 1 ligand 1. Kind of series: Inhibition of interaction of PD-1 (unknown origin) expressed in Jurkat T cells carrying luciferase reporter under the control of NFAT promoter/PD-L1 (unknown origin) expressed in CHO cells co-expressing TCR ligand and T-cell surrogate pretreated with CHO cells for 0.5 hrs followed by Jurkat T cell addition and measured after 5 hrs by luminescence based analysis.

Series [13] can be described thus: Half-life in Sprague-Dawley rat at 1 mg/kg, iv administered as single dose and measured after 48 hrs by HPLC-MS/MS analysis. It is filed as ADME, organism-based. The note with it: in vivo.
The next series relates to HepG2. Kind of series: Antitumor immunity activity against human HepG2 cells expressing human PD-L1 co-cultured with human Jurkat T cells expressing human PD-1 assessed as reduction in cell viability at 10 uM incubated for 48 hrs by CCK8 assay relative to control. In kind it is functional. For orientation: Tetrazolium assays rely on reduction of a dye to a coloured formazan, in cell work by metabolically active cells.

For series [14], the system named is B16-F10. Kind of series: Antitumor immunity against mouse B16-F10 cells implanted in allogenic BALB/c mouse assessed as increase in CD3+ T cells at 50 mg/kg, ip by flow cytometric analysis (reference value: 2.51%). In kind it is functional. On the technique in general: A flow cytometer gives signals particle by particle.
Series [15] relates to B16-F10. Kind of series: Antitumor activity against mouse B16-F10 cells implanted in BALB/c mouse assessed as reduction in tumor growth inhibition at 50 mg/kg, ip administered once daily for 14 days relative to control. It is filed as functional. The note with it: B16-F10, 336 h, time 14 day, read-out: TGI.
Series [16] in a line: AUC (0 to infinity) in Sprague-Dawley rat at 1 mg/kg, iv administered as single dose and measured after 48 hrs by HPLC-MS/MS analysis. In kind it is ADME, organism-based. Also noted: dose 1 mg/kg, time 48 hrs, route iv. Conditions: in vivo.
Series [17] can be described thus: Toxicity in allogenic BALB/c mouse implanted with mouse B16-F10 cells assessed as severe crypt necrosis in colon at 50 mg/kg, ip by H&E staining based analysis. It is filed as organism-based. Conditions: in vivo.
Series [18] addresses Programmed cell death 1 ligand 1 (Homo sapiens, UniProt Q9NZQ7). Kind of series: Binding affinity to human PD-L1 at 20 uM by SPR analysis.
Series [19] addresses Programmed cell death 1 ligand 1 (Mus musculus) (UniProt Q9EP73). Kind of series: Binding affinity to mouse PD-L1 at 20 uM by SPR analysis.
In series [20] the target is T1, Programmed cell death protein 1/Programmed cell death 1 ligand 1 (Homo sapiens). Kind of series: Inhibition of GST-tagged PD-1 (unknown origin)/His-tagged PD-L1 (unknown origin) interaction at 10 uM by HTRF binding assay. It is filed as protein-complex assay.

Chain of Programmed cell death 1 ligand 1 (Mus musculus) (Q9EP73 whole entry): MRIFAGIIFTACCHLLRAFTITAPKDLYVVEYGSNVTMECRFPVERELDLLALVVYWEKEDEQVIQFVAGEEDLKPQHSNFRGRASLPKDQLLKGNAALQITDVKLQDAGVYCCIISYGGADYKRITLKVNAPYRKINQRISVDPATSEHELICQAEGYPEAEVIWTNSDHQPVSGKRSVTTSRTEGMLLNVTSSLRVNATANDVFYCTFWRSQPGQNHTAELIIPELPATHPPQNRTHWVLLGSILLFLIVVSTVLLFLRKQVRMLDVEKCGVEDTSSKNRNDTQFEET
Chain of Programmed cell death 1 ligand 1 (Q9NZQ7 whole entry): as the sequence (Q9NZQ7 whole entry) above

As to `Cc1c(COc2cc(OCc3cccc(C#N)c3)c(CNC(C)(C)C(=O)NC3CCN(C(=O)CCCC[C@H]4SC[C@H]5NC(=O)N[C@H]54)CC3)cc2Cl)cccc1-c1ccc2c(c1)OCCO2`, the inhibition (as a rule, the change of the read-out against control, counted positive when it falls) in series [1] was 50.1%; in [2], 3.7%.
For the compound `Cc1c(COc2cc(OCc3cccc(C#N)c3)c(CN3CCCCC3C(=O)NCCNC(=O)CCCC[C@H]3SC[C@H]4NC(=O)N[C@H]43)cc2Cl)cccc1-c1ccc2c(c1)OCCO2` (stereo partly specified), the inhibition in series [1] came to 88.5%; in series [2], 26.8%.
As for `Cc1c(COc2cc(OCc3cccc(C#N)c3)c(CNC(C)(C)C(=O)N3CCN(C(=O)CCCC[C@@H]4SC[C@@H]5NC(=O)N[C@@H]54)CC3)cc2Cl)cccc1-c1ccccc1`, the inhibition came out at 68.1% in series [1] and 11.2% in series [2].
For `Cc1c(COc2cc(OCc3cccc(C#N)c3)c(CN3CCCCC3C(=O)NC3CCN(C(=O)CCCC[C@H]4SC[C@H]5NC(=O)N[C@H]54)CC3)cc2Cl)cccc1-c1ccc2c(c1)OCCO2` (stereo partly specified), the inhibition in series [1] came out at 84.7%; in series [2], 11.2%.
With `Cc1c(COc2cc(OCc3cccc(C#N)c3)c(CN3CCCCC3C(=O)NC3CCN(C(=O)CCCC[C@@H]4SC[C@@H]5NC(=O)N[C@@H]54)CC3)cc2Cl)cccc1-c1ccccc1` (stereo partly specified), the inhibition in series [1] amounted to 99.2%; in series [2], 29.1%. Also, the IC50 (as a rule, the midpoint of a concentration-inhibition curve) in series [3] is 11.6 nM.
Regarding `Cc1c(COc2cc(OCc3cccc(C#N)c3)c(CN3CCCCC3C(=O)NCCN)cc2Cl)cccc1-c1ccccc1` (stereo unspecified), in series [4], the Tmax (in general, the time from dosing to the highest level) came to 4.98 min. The same compound registered a C0 at 48 h in series [5] of 2630 ng/mL. Further, the Activity entry in series [6] is reported as “Toxic”; with HepG2, 31%; in the series on B16-F10 [14] it was 8.45%; in series [17], “Toxic”. Besides, the MRT last – broadly, the average time that molecules of a dose stay in the body – at 48 h in series [7] came to 1.8 h. Further, the clearance – broadly, the volume of plasma or blood freed of the substance per unit of time – in series [8] is 8.33 mL/min/kg. Besides, the Vd in [9] is 5.3 L/kg. Further, the MRT inf (as a rule, the average time that molecules of a dose stay in the body) in [10] was found to be 2.3 h. In series [11], this compound yielded an AUCt of 1800 ng·h/mL. Moreover, the EC50 (in general, the concentration giving half of the maximal effect) in series [12] was determined as 4650 nM. In addition, the half-life (as a rule, the time needed for the level to fall by half in the phase considered) in series [13] is 6.4 h. Besides, the inhibition in vivo at 50 mg/kg in the series on B16-F10 [15] came out at 44.3%. For the same compound, the AUC (as a rule, concentration integrated over time) in series [16] amounted to 1830 ng·h/mL.
For the compound `O=C(O)CCCC[C@@H]1SC[C@@H]2NC(=O)N[C@@H]21`, the outcome in [18] and in [19] was inactive. Moreover, the inhibition entry in series [20] was “inactive”.
Take `Cc1c(COc2cc(OCc3cccc(C#N)c3)c(CNC(C)(C)C(=O)NCCNC(=O)CCCC[C@@H]3SC[C@@H]4NC(=O)N[C@@H]43)cc2Cl)cccc1-c1ccccc1`: the inhibition is 79.2% in [1] and 21.3% in series [2].
In the case of `Cc1c(COc2cc(OCc3cccc(C#N)c3)c(CN3CCCCC3C(=O)N3CCC(NC(=O)CCCC[C@H]4SC[C@H]5NC(=O)N[C@H]54)CC3)cc2Cl)cccc1-c1ccc2c(c1)OCCO2` (stereo partly specified), the inhibition is 90.6% in series [1] and 13.4% in series [2].
With `Cc1c(COc2cc(OCc3cccc(C#N)c3)c(CNC(C)(C)C(=O)NCCNC(=O)CCCC[C@H]3SC[C@H]4NC(=O)N[C@H]43)cc2Cl)cccc1-c1ccc2c(c1)OCCO2`, the inhibition in series [1] is 66.9%; in series [2], -4%.
Consider `Cc1c(COc2cc(OCc3cccc(C#N)c3)c(CN3CCCCC3C(=O)N3CCN(C(=O)CCCC[C@@H]4SC[C@@H]5NC(=O)N[C@@H]54)CC3)cc2Cl)cccc1-c1ccccc1` (stereo partly specified), for which the figures for the inhibition in series [1] and in series [2] were 102% and 93.1%, respectively. In series [3], this compound came in with an IC50 of 3.4 nM.
Consider `Cc1c(COc2cc(OCc3cccc(C#N)c3)c(CN3CCCCC3C(=O)NCCCNC(=O)CCCC[C@@H]3SC[C@@H]4NC(=O)N[C@@H]43)cc2Cl)cccc1-c1ccccc1` (stereo partly specified), for which the inhibition in [1] was determined as 104%; in series [2], 85.2%. In series [3], this compound returned an IC50 of 5.6 nM.
On to `Cc1c(COc2cc(OCc3cccc(C#N)c3)c(CNC(C)(C)C(=O)N3CCN(C(=O)CCCC[C@H]4SC[C@H]5NC(=O)N[C@H]54)CC3)cc2Cl)cccc1-c1ccc2c(c1)OCCO2`, for which the results for the inhibition in [1] and in series [2] were 59.3% and 9.1%, respectively.
In the case of `Cc1c(COc2cc(OCc3cccc(C#N)c3)c(CN3CCCCC3C(=O)N(C)CCNC(=O)CCCC[C@@H]3SC[C@@H]4NC(=O)N[C@@H]43)cc2Cl)cccc1-c1ccccc1` (stereo partly specified), the inhibition in series [1] was 104%; in series [2], 34.9%. Also, the IC50 in series [3] worked out at 10.8 nM.
As to `Cc1c(COc2cc(OCc3cccc(C#N)c3)c(CNC(C)(C)C(=O)N3CCC(NC(=O)CCCC[C@H]4SC[C@H]5NC(=O)N[C@H]54)CC3)cc2Cl)cccc1-c1ccc2c(c1)OCCO2`, the inhibition in series [1] was 42.6%; in series [2], -7.5%.
Regarding `Cc1c(COc2cc(OCc3cccc(C#N)c3)c(CN3CCCCC3C(=O)N3CCC(NC(=O)CCCC[C@@H]4SC[C@@H]5NC(=O)N[C@@H]54)CC3)cc2Cl)cccc1-c1ccccc1` (stereo partly specified), the inhibition in [1] amounted to 97.2%; in series [2] it was 100%. Besides, in [3], the IC50 stood at 4 nM.
Take `Cc1c(COc2cc(OCc3cccc(C#N)c3)c(CNC(C)(C)C(=O)NCCCNC(=O)CCCC[C@@H]3SC[C@@H]4NC(=O)N[C@@H]43)cc2Cl)cccc1-c1ccccc1`: the results for the inhibition in series [1] and in series [2] were 81.5% and 10.4%, respectively.
Take `Cc1c(COc2cc(OCc3cccc(C#N)c3)c(CNC(C)(C)C(=O)N3CCC(NC(=O)CCCC[C@@H]4SC[C@@H]5NC(=O)N[C@@H]54)CC3)cc2Cl)cccc1-c1ccccc1`: the results for the inhibition in [1] and in series [2] were 64.1% and 6.8%, respectively.
Regarding `Cc1c(COc2cc(OCc3cccc(C#N)c3)c(CN3CCCCC3C(=O)N(C)CCNC(=O)CCCC[C@@H]3SC[C@@H]4NC(=O)N[C@@H]43)cc2Cl)cccc1-c1ccc2c(c1)OCCO2` (stereo partly specified), the inhibition was determined as 82.6% in [1] and 20.1% in series [2].
As to `Cc1c(COc2cc(OCc3cccc(C#N)c3)c(CNC(C)(C)C(=O)NC3CCN(C(=O)CCCC[C@H]4SC[C@H]5NC(=O)N[C@H]54)CC3)cc2Cl)cccc1-c1ccccc1`, the inhibition in [1] amounted to 74.6%; in [2] it was 5.9%.
The corresponding values for `Cc1c(COc2cc(OCc3cccc(C#N)c3)c(CN3CCCCC3C(=O)N3CCN(C(=O)CCCC[C@@H]4SC[C@@H]5NC(=O)N[C@@H]54)CC3)cc2Cl)cccc1-c1ccc2c(c1)OCCO2` (stereo partly specified) are 80.9% and 17.3%.
